In publication PMC4945466 (Journal of medicinal chemistry, 2016):
Like-named read-outs stand apart in the source and are kept apart here.

Experiments:
[1] = target: recombinant HIV-1 IN (integrase strand transfer) (Human immunodeficiency virus type 1 group M subtype B, UniProt P04585); assay: INST biochemical assay
[2] = tested on: HIV-1 IIIB in CEM-SS cells; assay: microbe, parasite or virus in culture; assay type: cell-based; conditions: for Antiviral Screening (10 μM) CPE reduction %: HIV-1 IIIB in CEM-SS cells, versus viral control
[3] = tested on: CEM-SS cells; assay: Cell viability / cytotoxicity in cytoprotection assay; assay type: cell-based
[4] = as above; assay type: cell-based; conditions: human
[5] = read-out: INST IC50, mean ± SD, at least three independent experiments

## 1-(Hydroxy)-1,2,3,6-tetrahydro-2,6-dioxo-4-(phenylamino)pyrimidine-5-carboxamide [Compound 49]
[1]; [5]
  IC50: > 100 µM

## 3-(Benzyloxy)-6-(ethylamino)-N-(4-fluorobenzyl)-N-methyl-2,4-dioxo-1,2,3,4-tetrahydropyrimidine-5-carboxamide [Compound 53]
[2]
  Antiviral Screening (10 μM) CPE reduction %: 0%
[3]; 10 µM
  Antiviral Screening (10 μM) viability %: 89%
[1]; [5]
  IC50: 7 ± 3.3 µM

## O=C(NCc1ccccc1)c1c(Nc2ccccc2)[nH]c(=O)n(O)c1=O [Compound 24, N-Benzyl-1-(hydroxy)-1,2,3,6-tetrahydro-2,6-dioxo-4-(phenylamino)pyrimidine-5-carboxamide]
[1]
  IC50: > 100 µM

## O=C(NCc1ccccc1)c1c(Nc2ccc(-c3ccccc3)cc2)[nH]c(=O)n(O)c1=O [Compound 25, N-Benzyl-1-(hydroxy)-1,2,3,6-tetrahydro-2,6-dioxo-4-(biphenylamino)pyrimidine-5-carboxamide]
[1]
  IC50: > 100 µM

## CCNc1[nH]c(=O)n(O)c(=O)c1C(=O)NCc1ccc(F)c(F)c1 [Compound 42, N-(3,4-difluorobenzyl)-1-(hydroxy)-4-(ethylamino)-1,2,3,6-tetrahydro-2,6-dioxopyrimidine-5-carboxamide]
[2]
  Antiviral Screening (10 μM) CPE reduction %: inactive
[3]; 10 μM, CEM-SS cells, versus cell control
  Antiviral Screening (10 μM) viability %: cytotoxic

## CCNc1[nH]c(=O)n(O)c(=O)c1C(=O)NCc1ccc(Cl)c(F)c1 [Compound 44, N-(4-Chloro-3-fluorobenzyl)-1-(hydroxy)-4-(ethylamino)-1,2,3,6-tetrahydro-2,6-dioxopyrimidine-5-carboxamide]
[2]; cytoprotection assay, CEM-SS cells
  TI (therapeutic index, CC50/EC50): 100

## CCNc1[nH]c(=O)n(O)c(=O)c1C(=O)NCCCl [Compound 50, 1-(Hydroxy)-N-(2-chloroethyl)-4-(ethylamino)-1,2,3,6-tetrahydro-2,6-dioxopyrimidine-5-carboxamide]
[1]
  IC50: > 100 µM

## CCNc1[nH]c(=O)n(O)c(=O)c1C(=O)Oc1ccccc1 [Compound 51, Phenyl-1-(hydroxy)-4-(ethylamino)-1,2,3,6-tetrahydro-2,6-dioxopyrimidine-5-carboxylate]
[1]
  IC50: > 100 µM

## CCNc1c(C(=O)NCc2ccc(F)cc2)c(=O)n(O)c(=O)n1C [Compound 52, N-(4-Fluorobenzyl)-3-(hydroxy)-6-(ethylamino)-1,2,3,4-tetrahydro-1-methyl-2,4-dioxopyrimidine-5-carboxamide]
[1]
  IC50: > 100 µM

## O=C(NCc1ccccc1)c1c(O)n(O)c(=O)[nH]c1=O [Compound 54, N-Benzyl-1,6-dihydroxy-2,4-dioxo-1,2,3,4-tetrahydropyrimidine-5-carboxamide]
[2]; Human immunodeficiency virus 1, IIIB, CEM-SS, 144 h, read-out: Antiviral Screening (10 μM) CPE reduction %
  inhibition at 10 µM: 26%
[4]
  viability at 6 days, 10 µM: 100%
